The subject of one data set is MM1.S. As to the kind of experiment: Cytotoxicity against human MM1.S cells assessed as inhibition of cell growth incubated for 72 hrs measured by spectrophotometer analysis. Format: functional, cell-based.
For data set [1], the target named is T1, Protein deacetylase HDAC6 (Homo sapiens) (UniProt Q9UBN7).
T1 sequence (whole entry): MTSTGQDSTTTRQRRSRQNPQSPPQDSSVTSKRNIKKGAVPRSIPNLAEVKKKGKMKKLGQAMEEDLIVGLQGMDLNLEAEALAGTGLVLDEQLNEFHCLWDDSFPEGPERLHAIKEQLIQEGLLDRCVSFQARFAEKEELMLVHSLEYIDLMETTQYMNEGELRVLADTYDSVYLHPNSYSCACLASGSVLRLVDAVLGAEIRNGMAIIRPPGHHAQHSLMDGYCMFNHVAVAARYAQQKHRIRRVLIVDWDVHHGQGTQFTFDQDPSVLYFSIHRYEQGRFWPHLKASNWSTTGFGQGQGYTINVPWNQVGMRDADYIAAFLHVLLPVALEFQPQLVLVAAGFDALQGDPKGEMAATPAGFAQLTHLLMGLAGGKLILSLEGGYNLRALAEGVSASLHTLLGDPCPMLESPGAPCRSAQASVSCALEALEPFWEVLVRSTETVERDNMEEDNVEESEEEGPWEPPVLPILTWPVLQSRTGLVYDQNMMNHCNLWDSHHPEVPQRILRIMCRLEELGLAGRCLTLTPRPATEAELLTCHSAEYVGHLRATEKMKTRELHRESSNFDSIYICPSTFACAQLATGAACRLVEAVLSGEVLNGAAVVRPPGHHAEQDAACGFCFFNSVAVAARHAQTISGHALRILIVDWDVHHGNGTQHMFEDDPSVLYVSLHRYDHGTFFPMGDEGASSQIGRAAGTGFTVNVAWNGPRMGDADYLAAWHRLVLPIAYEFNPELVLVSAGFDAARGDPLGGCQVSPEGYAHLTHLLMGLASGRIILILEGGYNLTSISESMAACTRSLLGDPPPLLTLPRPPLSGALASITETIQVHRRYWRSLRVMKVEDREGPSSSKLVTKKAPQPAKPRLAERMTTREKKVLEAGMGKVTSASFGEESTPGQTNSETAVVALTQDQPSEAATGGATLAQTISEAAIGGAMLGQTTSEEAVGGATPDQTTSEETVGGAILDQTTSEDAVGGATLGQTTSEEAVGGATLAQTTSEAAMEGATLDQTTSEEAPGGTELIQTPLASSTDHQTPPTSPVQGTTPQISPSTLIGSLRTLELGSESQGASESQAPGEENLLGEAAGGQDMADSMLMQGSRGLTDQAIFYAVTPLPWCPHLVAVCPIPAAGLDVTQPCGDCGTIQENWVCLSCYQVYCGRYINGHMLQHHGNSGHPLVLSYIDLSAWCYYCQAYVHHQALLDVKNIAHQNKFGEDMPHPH
Briefly: Binding affinity to full length human recombinant HDAC6 expressed in Sf9 baculovirus system assessed as residence time (1/koff).

The target of another data set is Histone deacetylase 2 (Homo sapiens, UniProt Q92769). As to the kind of experiment: Inhibition of full length human recombinant HDAC2 expressed in Sf9 baculovirus system using FAM-labeled acetylated peptide as substrate by measuring fluorescence intensity by EMSA method. For orientation: Mobility shift assays separate free from complexed probe on a gel.
In the next data set the target is Histone deacetylase 4 (Homo sapiens, UniProt P56524). As to the kind of experiment: Inhibition of full length human recombinant HDAC4 expressed in Sf9 baculovirus system using FAM-labeled acetylated peptide as substrate by measuring fluorescence intensity by EMSA method.
Another data set addresses Histone deacetylase 5 (Homo sapiens, UniProt Q9UQL6). Briefly: Inhibition of full length human recombinant HDAC5 expressed in Sf9 baculovirus system using FAM-labeled acetylated peptide as substrate by measuring fluorescence intensity by EMSA method.
A short description of data set [2]: Cytotoxicity against HUVEC cells assessed as inhibition of cell growth incubated for 72 hrs measured by spectrophotometer analysis. Type of data set: toxicity, cell-based. The note with it: human.
Data set [3] addresses T1, Protein deacetylase HDAC6 (Homo sapiens). As to the kind of experiment: Potency index, ratio of test compound residence time to ricolinostat residence time in full length HDAC6-NanoLuc fusion protein (unknown origin) expressed in HeLa cells by NanoBRET assay. Type of data set: cell-based. On the technique in general: Bioluminescence resonance energy transfer reports proximity on the nanometre scale.

Data set [4] shares this target. Briefly: Potency index, ratio of test compound residence time to KT-531 residence time in full length HDAC6-NanoLuc fusion protein (unknown origin) expressed in HeLa cells by NanoBRET assay. Format: cell-based. The note with it: time 5.0 min.
For data set [5] the target is unchanged. Briefly: Inhibition of full length human recombinant HDAC6 in human MV4-11 cells assessed as increase in acetylation of alpha-tubulin at 0.1 uM for 6 hrs by Western blot analysis. Format: cell-based. On the technique in general: In western blotting, separated proteins are transferred to a membrane and probed.
Data set [6] shares this target. As to the kind of experiment: Inhibition of full length human recombinant HDAC6 in human MV4-11 cells assessed as increase in acetylation of histone H3 for 6 hrs by immunofluorescence imaging method. Type of data set: cell-based. The settings on record: dose 0.1-2 µM, DDE = dose-dependent effect.
Data set [7] concerns MV4-11. As to the kind of experiment: Induction of apoptosis in human MV4-11 cells assessed as viable cells at 0.25 uM after 24 hrs by Annexin V/PI staining based flow cytometric analysis (Rvb=58.28%). The note with it: read-out: Activity. Format: functional.
For data set [8], the system named is MV4-11. Briefly: Induction of apoptosis in human MV4-11 cells assessed as early apoptotic cells at 0.75 uM after 24 hrs by Annexin V/PI staining based flow cytometric analysis (Rvb=2%). Type of data set: functional.
Data set [9] relates to MV4-11. Briefly: Induction of apoptosis in human MV4-11 cells assessed as late apoptotic cells at 1 uM after 24 hrs by Annexin V/PI staining based flow cytometric analysis (Rvb=2%). Format: functional.
The subject of data set [10] is MV4-11. Briefly: Induction of apoptosis in human MV4-11 cells assessed as viable cells at 2 uM after 24 hrs by Annexin V/PI staining based flow cytometric analysis (Rvb=58.28%). The settings on record: read-out: Activity. Type of data set: functional.
Data set [11] can be described thus: Stability in human plasma assessed as half life measured upto 60 mins by LC-MS/MS analysis. Format: ADME, cell-free.

The source made the active and inactive calls. The rule behind the calls is not given here. A value given as a limit tells only on which side of the number the result lay.

Chain of Histone deacetylase 5 (Q9UQL6 whole entry): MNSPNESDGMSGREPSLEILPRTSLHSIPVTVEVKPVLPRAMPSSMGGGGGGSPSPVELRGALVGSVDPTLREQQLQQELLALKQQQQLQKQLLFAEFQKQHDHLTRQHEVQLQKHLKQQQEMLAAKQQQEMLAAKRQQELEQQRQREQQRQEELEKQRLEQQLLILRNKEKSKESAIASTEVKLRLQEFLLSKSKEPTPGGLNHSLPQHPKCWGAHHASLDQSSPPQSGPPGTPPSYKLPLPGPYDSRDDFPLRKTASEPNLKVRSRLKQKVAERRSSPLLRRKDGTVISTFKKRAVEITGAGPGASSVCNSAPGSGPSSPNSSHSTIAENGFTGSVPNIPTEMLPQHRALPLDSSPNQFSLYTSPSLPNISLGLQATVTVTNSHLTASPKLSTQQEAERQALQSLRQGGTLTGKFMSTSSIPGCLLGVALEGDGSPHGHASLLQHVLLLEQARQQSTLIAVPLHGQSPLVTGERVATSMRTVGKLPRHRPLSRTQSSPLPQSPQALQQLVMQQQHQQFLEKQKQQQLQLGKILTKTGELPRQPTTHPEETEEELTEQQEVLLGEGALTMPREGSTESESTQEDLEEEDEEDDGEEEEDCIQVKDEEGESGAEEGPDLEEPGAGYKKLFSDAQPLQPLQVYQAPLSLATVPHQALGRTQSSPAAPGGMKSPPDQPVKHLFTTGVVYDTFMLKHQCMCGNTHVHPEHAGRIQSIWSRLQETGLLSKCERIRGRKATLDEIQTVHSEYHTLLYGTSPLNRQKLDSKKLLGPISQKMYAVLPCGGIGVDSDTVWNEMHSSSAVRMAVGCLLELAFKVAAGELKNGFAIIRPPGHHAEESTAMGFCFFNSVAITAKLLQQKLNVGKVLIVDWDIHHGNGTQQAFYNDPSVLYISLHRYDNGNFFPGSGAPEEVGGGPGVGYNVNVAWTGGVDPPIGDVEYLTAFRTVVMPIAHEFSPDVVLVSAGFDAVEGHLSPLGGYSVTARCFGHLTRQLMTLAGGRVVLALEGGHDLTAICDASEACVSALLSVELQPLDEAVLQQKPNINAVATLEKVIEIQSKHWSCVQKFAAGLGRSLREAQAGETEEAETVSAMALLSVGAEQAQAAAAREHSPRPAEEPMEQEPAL
Chain of Histone deacetylase 4 (P56524 whole entry): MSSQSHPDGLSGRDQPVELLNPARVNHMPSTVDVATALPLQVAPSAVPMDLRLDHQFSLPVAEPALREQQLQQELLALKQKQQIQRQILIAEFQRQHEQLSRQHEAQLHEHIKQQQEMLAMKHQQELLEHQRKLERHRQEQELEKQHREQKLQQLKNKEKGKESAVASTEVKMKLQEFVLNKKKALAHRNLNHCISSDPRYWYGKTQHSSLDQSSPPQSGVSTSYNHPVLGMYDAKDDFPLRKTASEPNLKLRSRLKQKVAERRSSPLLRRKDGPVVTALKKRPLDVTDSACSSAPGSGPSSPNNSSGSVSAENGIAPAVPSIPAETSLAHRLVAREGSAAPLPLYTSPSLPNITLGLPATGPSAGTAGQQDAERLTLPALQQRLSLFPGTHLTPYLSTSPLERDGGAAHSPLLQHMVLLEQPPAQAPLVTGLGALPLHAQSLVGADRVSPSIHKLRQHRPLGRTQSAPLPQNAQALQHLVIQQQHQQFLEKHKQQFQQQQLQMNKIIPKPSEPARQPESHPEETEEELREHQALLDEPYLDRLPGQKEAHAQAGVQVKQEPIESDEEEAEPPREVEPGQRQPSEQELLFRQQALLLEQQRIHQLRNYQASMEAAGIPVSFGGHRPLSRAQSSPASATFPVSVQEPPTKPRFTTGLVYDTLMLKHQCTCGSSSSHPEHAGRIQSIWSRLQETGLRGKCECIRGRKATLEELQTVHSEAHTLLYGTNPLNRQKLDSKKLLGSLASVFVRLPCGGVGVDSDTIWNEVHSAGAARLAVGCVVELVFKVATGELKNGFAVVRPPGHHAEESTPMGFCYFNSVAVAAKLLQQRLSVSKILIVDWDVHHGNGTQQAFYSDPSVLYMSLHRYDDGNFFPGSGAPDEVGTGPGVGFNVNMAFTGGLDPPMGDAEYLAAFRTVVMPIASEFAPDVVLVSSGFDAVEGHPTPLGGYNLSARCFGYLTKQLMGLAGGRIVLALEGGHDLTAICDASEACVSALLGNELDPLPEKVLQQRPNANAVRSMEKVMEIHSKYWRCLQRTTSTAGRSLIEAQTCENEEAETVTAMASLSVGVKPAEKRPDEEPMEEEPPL
Chain of Histone deacetylase 2 (Q92769 whole entry): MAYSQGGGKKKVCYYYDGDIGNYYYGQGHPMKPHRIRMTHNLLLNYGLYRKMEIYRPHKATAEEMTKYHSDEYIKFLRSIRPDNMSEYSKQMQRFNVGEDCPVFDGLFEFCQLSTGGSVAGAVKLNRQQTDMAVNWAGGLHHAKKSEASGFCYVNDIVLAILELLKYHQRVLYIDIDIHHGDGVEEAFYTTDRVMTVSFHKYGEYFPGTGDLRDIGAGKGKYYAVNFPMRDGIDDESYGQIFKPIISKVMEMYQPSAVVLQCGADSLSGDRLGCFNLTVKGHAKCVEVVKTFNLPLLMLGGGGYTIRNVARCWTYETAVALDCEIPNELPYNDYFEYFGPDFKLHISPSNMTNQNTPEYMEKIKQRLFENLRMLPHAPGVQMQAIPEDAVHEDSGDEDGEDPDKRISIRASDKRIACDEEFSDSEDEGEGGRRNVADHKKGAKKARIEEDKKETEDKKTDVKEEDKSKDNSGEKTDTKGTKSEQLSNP

Consider `CC(C)N(Cc1ccc(C(=O)NO)cc1)S(=O)(=O)c1cc(F)c(F)c(F)c1F`, for which the IC50 – broadly, the concentration that gives 50% inhibition – with MM1.S is 1380 nM; on Histone deacetylase 2, 316 nM; on Histone deacetylase 4 it was over 4000 nM; at Histone deacetylase 5, over 3000 nM. Further, the TIME in data set [1] was 0.133 h. Besides, the IC50 at 72 h in data set [2] turned out to be 10100 nM. Besides, the results for the fold change (FC) in [3] and in data set [4] were 2 and 1.9, respectively. Moreover, the inhibition entry in data set [5] was “Active”. Moreover, the inhibition result in [6] was “Dde”. Also, in the data set with MV4-11 [7], the viability at 0.25 µM amounted to 82%. The results for the Activity with MV4-11 [8] and with MV4-11 [9] were 2.28% and 10.88%, respectively. Also, the viability at 2 µM in the data set on MV4-11 [10] worked out at 32.9%. Moreover, in [11], the half-life (commonly how long it takes for the measured level to halve) was found to be 1.92 h.

Source of the values: ChEMBL document CHEMBL5154721, “Discovery of HDAC6-Selective Inhibitor NN-390 with in Vitro Efficacy in Group 3 Medulloblastoma” (J Med Chem, 2022).
